How the values were obtained:
mice = test: In vivo tolerability study
PC-3 cells [1] = settings: cited from earlier work
Kinetic solubility = format: physicochemical; settings: for Solubility bin (high, medium or low): kinetic solubility, ranges not printed (in reference)
[2] = Passive permeability, PAMPA Explorer Kit; format: in vitro ADME; settings: for Log Peff: log of effective permeability, mean of n = 3; for Permeability bin (high, medium or low): ranges not printed (Ref 17)
MKL1 = settings: preliminary studies; cited from earlier work
SK-Mel-147 cells = test: WST-1 cytotoxicity in SK-Mel-147 cells; format: cell-based
PC-3 cells [3] = test: WST-1 cytotoxicity in transfected PC-3 cells; format: cell-based; settings: Homo sapiens, PC-3, read-out: % inh WST-1 (100 μM)
[4] = molecular target: Rho-pathway selective serum response element-luciferase reporter (SRE.L); settings: read-out: IC50 (SRE.L); cited from earlier work

Structure (SMILES)	Solubility bin (high, medium or low) (Kinetic solubility)	Log Peff [2] [cm/s]	Permeability bin (high, medium or low) [2]	inhibition at 100 µM (PC-3 cells [3]) [%]	further results
CC(ONC(=O)c1cc(C(F)(F)F)cc(C(F)(F)F)c1)C(=O)Nc1ccc(Cl)cc1 (stereo not drawn) [Compound 1, reference compound]	–	–	–	–	In vivo tolerability (toxicity) (mice; repeated dosing at 7.5 mg/kg intraperitoneally (IP)): deaths observed; Inhibition of invasion of PC-3 prostate cancer cells (PC-3 cells [1]; Matrigel model of metastasis): inhibits invasion
O=C(Nc1ccc(Cl)cc1)C1CCCN(C(=O)c2cc(C(F)(F)F)cc(C(F)(F)F)c2)C1 (stereo not drawn) [Compound 2, reference compound]	LOW	−10 ± 0.00	LOW	–	solubility (Kinetic solubility): < 10 µg/mL; Inhibition of invasion into Matrigel by cultured PC-3 cells (PC-3 cells [1]): can inhibit invasion
O=C(Nc1ccc(Cl)cc1)C1CCCN(C(=O)c2cccc(-c3ccco3)c2)C1 (stereo not drawn) [Compound 8a]	LOW	−8.3 ± 2.3	LOW	0	Effect on MKL1 nuclear localization (MKL1): blocks MKL1 nuclear localization; Body weight over the course of the study (mice; 10, 20, 50 and 100 mg/kg/day IP, 5 days): Weight was maintained; Abnormality observed at dissection (mice; 10, 20, 50 and 100 mg/kg/day IP, 5 days, sacrifice on 8th day): slight increase in liver weight; Tolerability in mice (mice; 5 days, up to 100 mg/kg/day IP, normal mice): well tolerated; WST-1 cytotoxicity (SK-Mel-147 cells): no WST-1 cytotoxicity
O=C(c1ccccc1)c1cccc(C(=O)N2CCCC(C(=O)Nc3ccc(Cl)cc3)C2)c1 (stereo not drawn) [Compound 8b]	–	–	–	0	–
CC(C)(C)CC(=O)Nc1cccc(C(=O)N2CCCC(C(=O)Nc3ccc(Cl)cc3)C2)c1 (stereo not drawn) [Compound 8e]	–	–	–	0	–
C=Cc1cccc(C(=O)N2CCCC(C(=O)Nc3ccc(Cl)cc3)C2)c1 (stereo not drawn) [Compound 8f]	–	–	–	0	–
Cc1cccc(C(=O)N2CCCC(C(=O)Nc3ccc(Cl)cc3)C2)c1 (stereo not drawn) [Compound 8h]	–	–	–	0	–
CSc1cccc(C(=O)N2CCCC(C(=O)Nc3ccc(Cl)cc3)C2)c1 (stereo not drawn) [Compound 8i]	–	–	–	0	–
O=C(Nc1ccc(Cl)cc1)C1CCCN(C(=O)c2cccc(-c3cnco3)c2)C1 (stereo not drawn) [Compound 8j]	–	–	–	0	–
CCN(CC)S(=O)(=O)c1cccc(C(=O)N2CCCC(C(=O)Nc3ccc(Cl)cc3)C2)c1 (stereo not drawn) [Compound 8k]	–	–	–	0	–
COC(=O)c1cccc(C(=O)N2CCCC(C(=O)Nc3ccc(Cl)cc3)C2)c1 (stereo not drawn) [Compound 8l]	–	–	–	0	–
Cc1nc(-c2cccc(C(=O)N3CCCC(C(=O)Nc4ccc(Cl)cc4)C3)c2)no1 (stereo not drawn) [Compound 8m]	–	–	–	0	–
COc1cccc(C(=O)N2CCCC(C(=O)Nc3ccc(Cl)cc3)C2)c1 (stereo not drawn) [Compound 8n]	–	–	–	0	–
COCc1cccc(C(=O)N2CCCC(C(=O)Nc3ccc(Cl)cc3)C2)c1 (stereo not drawn) [Compound 8o]	–	–	–	0	–
N#Cc1cccc(C(=O)N2CCCC(C(=O)Nc3ccc(Cl)cc3)C2)c1 (stereo not drawn) [Compound 8q]	–	–	–	0	–
O=C(Nc1ccc(Cl)cc1)C1CCCN(C(=O)c2cccc([N+](=O)[O-])c2)C1 (stereo not drawn) [Compound 8s]	–	–	–	0	–
O=C(Nc1ccc(Cl)cc1)C1CCCN(C(=O)c2cccc(-c3cccs3)c2)C1 (stereo not drawn) [Compound 8u]	LOW	−10 ± 0.00	LOW	–	–
O=C(Nc1cccc(Oc2ccccc2)c1)C1CCCN(C(=O)c2cc(C(F)(F)F)cc(C(F)(F)F)c2)C1 (stereo not drawn) [Compound 12a]	LOW	−5.1 ± 0.40	MOD-LOW	–	–
O=C(Nc1cccc(Cc2ccccc2)c1)C1CCCN(C(=O)c2cc(C(F)(F)F)cc(C(F)(F)F)c2)C1 (stereo not drawn) [Compound 12b]	LOW	−4.7 ± 0.05	MOD	–	–
O=C(CCNC(=O)c1cc(C(F)(F)F)cc(C(F)(F)F)c1)Nc1ccc(Cl)cc1 [Compound 19, reference compound]	LOW	−10 ± 0.00	LOW	–	IC50 [4]: 38 µM
